According to article PMC9382192, “Combined treatment with epigenetic agents enhances anti-tumor activity of MAGE-D4 peptide-specific T cells by upregulating the MAGE-D4 expression in glioma” (Frontiers in Oncology, 2022):

Experiments:
[1] = test system: U87 glioma tissues; assay: CD8 immunohistochemistry of xenograft tissue; type: in vivo, BALB/C nude female mice; conditions: MAGE-D4-specific T cells in TSA-treated U87 glioma tissues, IHC
Experimental: Eighteen BALB/C nude female mice aged 4 weeks were provided by the Guangxi Experimental Animal Center. The mice were placed in a light-controlled room at 24 ± 1 °C (light: 7:00–19:00 h, dark: 19:00–7:00 h) and fed under specific pathogen-free conditions. All protocols followed the guidelines of the National Research Council for the Care and Use of Laboratory Animals and were approved by the Animal Ethics Committee of Guangxi Medical University. To develop a xenograft model, 4 × 10^6 U87 cells were inoculated into the flanks of the mice subcutaneously. Two weeks later, mice simultaneously received intraperitoneal peritumorally injections of TSA (0.5 mg/kg) and 1 × 10^7 peptides loaded on CD8^+ T cells, respectively. Every […], tumor volumes were measured simultaneously with a caliper. Mice were sacrificed by euthanasia when visibly ill. Mice injected with negative peptide-induced CTLs and CTLs without peptides were included as controls. The tumor volumes were calculated using the following formula: tumor volume = [(width2 × length)/2]. Immunochemistry was conducted to detect expressions of CD8 on tissue sections. […] Integrated optical density (IOD) was measured by image-Pro Plus software (version 6.0, Media Cybernetics, MD, USA) for images of five randomly selected regions from a slice. The results were expressed as average optical density (AOD = IOD/area).

[2] = test system: U87; assay: LDH cytotoxicity assay, U87; type: cell-based, human; conditions: TSA-treated U87, E:T 50:1, 4 h; compared to T cell alone and NC-T cell groups
Experimental: The human glioma cell lines (U87-MG and U251) were obtained from the Cell Bank of Type Culture Collection of the Chinese Academy of Science (Shanghai, China). Decitabine (DAC, CAS No. A3656), valproic acid (VPA, CAS No. 99-66-1), and trichostatin A (TSA, CAS No. 58880-19-6) were purchased from Sigma-Aldrich Corporation (St. Louis, MO, USA). DAC and TSA were dissolved in DMSO to a concentration of 10 mM. Aliquots were stored at −80°C and diluted with media before being used. […]
The cytotoxic activity of MAGE-D4 peptide-specific CTLs to glioma cells was determined according to the instructions of the manufacturers by our published method ([31]). […] Four hours later, suspended cells were collected for CD107a flow cytometry, meanwhile, the supernatant was collected and analyzed with granzyme A and perforin ELISA kit (Cloud-Clone Corporation, Wuhan, China) at 450 nm, and the LDH kit (Promega, USA) at 490 nm. The percentage of specific lysis was calculated using the following formula: [(experimental release − spontaneous release)/(maximum release − spontaneous release)] × 100. […] Then, the cytotoxicity assay was measured and calculated as mentioned above.

[3] = test system: IFN-γ; assay: IFN-γ ELISPOT; type: cell-based, human; conditions: 1 × 10^6 T cells/well stimulated by peptide-pulsed DCs, 20 h
Experimental: The number of T cells secreting IFN-γ was measured by ELISPOT using Human IFN-γ precoated ELISPOT kit (Dakewe, Beijing, China). Briefly, RPMI 1640 complete medium was added for 5–10 min to activate the pre-coated plate. T cells (1 × 10^6/well) stimulated by peptide-pulsed DCs were added to each well and incubated in a 37°C 5% CO2 incubator for 20 h. After lysis in cold water, the biotin-labeled antibody was added and incubated at 37°C for 1 h, then the enzyme-labeled avidin was added and incubated at 37°C for 1 h. The spots present in each well were scanned using the CTL ELISPOT analyzer and counted using the ImmunoSpot Professional Software.

Compound	CD8+ T-cell infiltration in tumor tissue [1]	cytotoxicity of peptide-specific T cells (specific lysis, LDH) [2]	number of IFN-γ secreting T cells (ELISPOT) [3]
CC(/C=C/C(=O)NO)=C\[C@@H](C)C(=O)c1ccc(N(C)C)cc1 [TSA, trichostatin A]	highest degree		
CLPPPNVIL [Peptide P8]		higher cytotoxicity	more than that in others
